Values of other authors in patent publication US20170112867A1, “PHARMACEUTICAL COMBINATIONS OF […] RIBAVIRIN” (SANOVEL ILAC SANAYI VE TICARET ANONIM SIRKETI, priority 2014, published 2017).

How the values were obtained:
[1] = system: chronic hepatitis C (CHC) infections; conditions: ribavirin alone, during or after therapy

Compound	solubility (across the pH range of 2-7.7 at 37° C.) [mg/mL]	solubility in water	metabolism by Cytochromes P450 (CYP) (Cytochromes P450 (CYP))	solubility in anhydrous alcohol (anhydrous alcohol)	HCV RNA levels [1]
CC(C)OC(=O)[C@H](C)N[P@](=O)(OC[C@H]1O[C@@H](n2ccc(=O)[nH]c2=O)[C@](C)(F)[C@@H]1O)Oc1ccccc1 [Sofosbuvir, (S)-Isopropyl 2-((S)-(((2R,3R,4R,5R)-5-(2,4-dioxo3,4-dihydropyrimidin-1(2H)-yl)-4-fluoro-3-hydroxy-4-methyltetrahydrofuran-2yl)methoxy)-(phenoxy)phosphorylamino)propanoate]	≥ 2	slightly soluble	not metabolized		
1-β-Dribofuranosyl-1H-1,2,4-triazole-3-carboxamide [Ribavirin]		freely soluble		slightly soluble	did not reduce HCV RNA levels
